Data from PMC5290327, “SC83288 is a clinical development candidate for the treatment of severe malaria” (Nature Communications, 2017).

Experiments:
Assay in all cases: KINOMEscan
Format in all cases: binding
Conditions in all cases: read-out: Remaining enzyme activity
PAK2 = target: T1, PAK2 (Homo sapiens, UniProt Q13177)
T1 construct: purchased Ambit (DiscoverX) KINOMEscan; Cerep
Summary of the method: (§1)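 Measures displacement of tagged kinase from an immobilized active-site probe rather than enzymatic activity. SC81458 was added at 10 μM final from a 40x stock in 100% DMSO. Bound kinase was eluted and counted via qPCR.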

PKN1 = target: T2, PKN1 (Homo sapiens, UniProt Q16512)
T2 construct: purchased Ambit (DiscoverX) KINOMEscan; Cerep
Summary of the method: as §1

ERK4 = target: T3, ERK4 (Homo sapiens, UniProt P31152)
T3 construct: purchased Ambit (DiscoverX) KINOMEscan; Cerep
T3 sequence (P31152 whole entry): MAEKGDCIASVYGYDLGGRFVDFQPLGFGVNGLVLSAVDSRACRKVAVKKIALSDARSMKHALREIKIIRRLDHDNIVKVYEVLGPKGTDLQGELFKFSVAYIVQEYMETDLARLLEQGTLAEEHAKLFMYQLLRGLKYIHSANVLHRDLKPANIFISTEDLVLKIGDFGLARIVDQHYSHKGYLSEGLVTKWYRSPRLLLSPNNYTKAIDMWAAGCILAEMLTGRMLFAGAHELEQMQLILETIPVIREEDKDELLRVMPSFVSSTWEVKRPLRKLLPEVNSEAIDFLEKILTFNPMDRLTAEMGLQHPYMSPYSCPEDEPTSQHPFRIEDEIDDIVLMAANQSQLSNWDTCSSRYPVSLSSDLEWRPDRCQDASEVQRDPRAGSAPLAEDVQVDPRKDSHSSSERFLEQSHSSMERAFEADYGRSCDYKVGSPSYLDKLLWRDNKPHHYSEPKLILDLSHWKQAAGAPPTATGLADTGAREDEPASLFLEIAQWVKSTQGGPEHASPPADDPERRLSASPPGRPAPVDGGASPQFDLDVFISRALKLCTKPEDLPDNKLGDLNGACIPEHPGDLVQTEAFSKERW
Summary of the method: as §1

WEE2 = target: T4, WEE2 (Homo sapiens, UniProt P0C1S8)
T4 construct: purchased Ambit (DiscoverX) KINOMEscan; Cerep
Summary of the method: as §1

EGFR(L858R, T790M) = target: T5, EGFR(L858R, T790M) (Homo sapiens, UniProt P00533, L858R/T790M)
T5 construct: purchased Ambit (DiscoverX) KINOMEscan; Cerep
Summary of the method: as §1

BMPR2 = target: T6, BMPR2 (Homo sapiens, UniProt Q13873)
T6 construct: purchased Ambit (DiscoverX) KINOMEscan; Cerep
T6 sequence (Q13873 27-1038): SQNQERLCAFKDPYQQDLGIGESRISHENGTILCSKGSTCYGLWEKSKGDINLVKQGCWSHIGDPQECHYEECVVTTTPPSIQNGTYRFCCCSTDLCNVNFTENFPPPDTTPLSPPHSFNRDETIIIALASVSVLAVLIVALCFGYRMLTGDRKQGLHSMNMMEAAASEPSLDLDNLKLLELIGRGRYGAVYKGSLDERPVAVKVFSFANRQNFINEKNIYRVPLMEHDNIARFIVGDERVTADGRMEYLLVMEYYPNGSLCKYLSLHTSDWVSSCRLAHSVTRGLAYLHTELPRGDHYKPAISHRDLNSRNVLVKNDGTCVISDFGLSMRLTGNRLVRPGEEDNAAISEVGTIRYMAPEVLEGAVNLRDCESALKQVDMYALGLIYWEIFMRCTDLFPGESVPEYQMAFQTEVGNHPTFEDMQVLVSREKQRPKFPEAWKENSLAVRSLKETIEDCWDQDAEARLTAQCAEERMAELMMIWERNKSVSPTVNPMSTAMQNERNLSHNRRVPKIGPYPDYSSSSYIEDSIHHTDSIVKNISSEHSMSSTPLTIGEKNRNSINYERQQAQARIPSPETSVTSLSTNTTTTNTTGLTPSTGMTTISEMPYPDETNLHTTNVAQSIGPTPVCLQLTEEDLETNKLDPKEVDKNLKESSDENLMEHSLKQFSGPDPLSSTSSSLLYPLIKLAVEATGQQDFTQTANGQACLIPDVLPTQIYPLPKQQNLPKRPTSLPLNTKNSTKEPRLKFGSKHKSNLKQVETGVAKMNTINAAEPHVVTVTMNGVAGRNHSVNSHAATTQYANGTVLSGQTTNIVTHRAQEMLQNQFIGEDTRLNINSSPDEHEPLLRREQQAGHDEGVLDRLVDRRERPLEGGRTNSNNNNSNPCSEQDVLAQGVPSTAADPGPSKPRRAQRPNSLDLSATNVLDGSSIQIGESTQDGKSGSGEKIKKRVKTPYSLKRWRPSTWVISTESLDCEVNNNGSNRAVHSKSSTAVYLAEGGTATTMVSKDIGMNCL
Summary of the method: as §1

[1] = target: T7, RPS6KA5(Kin.Dom.1-N-term) (Homo sapiens, UniProt O75582)
T7 construct: RPS6KA5(Kin.Dom.1-N-term); purchased Ambit (DiscoverX) KINOMEscan; Cerep
T7 sequence (O75582 49-318 limits assumed): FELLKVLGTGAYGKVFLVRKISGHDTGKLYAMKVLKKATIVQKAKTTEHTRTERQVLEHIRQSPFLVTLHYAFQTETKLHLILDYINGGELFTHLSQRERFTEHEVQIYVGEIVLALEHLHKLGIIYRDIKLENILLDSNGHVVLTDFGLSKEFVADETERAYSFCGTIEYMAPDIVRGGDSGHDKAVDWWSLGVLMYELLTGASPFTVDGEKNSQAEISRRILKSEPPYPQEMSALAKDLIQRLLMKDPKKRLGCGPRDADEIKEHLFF
Summary of the method: as §1

PRKD3 = target: T8, PRKD3 (Homo sapiens, UniProt O94806)
T8 construct: purchased Ambit (DiscoverX) KINOMEscan; Cerep
Summary of the method: as §1

TESK1 = target: T9, TESK1 (Homo sapiens, UniProt Q15569)
T9 construct: purchased Ambit (DiscoverX) KINOMEscan; Cerep
Summary of the method: as §1

PRKCH = target: T10, PRKCH (Homo sapiens, UniProt P24723)
T10 construct: purchased Ambit (DiscoverX) KINOMEscan; Cerep
Summary of the method: as §1

DMPK = target: T11, DMPK (Homo sapiens, UniProt Q09013)
T11 construct: purchased Ambit (DiscoverX) KINOMEscan; Cerep
Summary of the method: as §1

PIP5K2b = target: T12, PIP5K2b (Homo sapiens, UniProt P78356)
T12 construct: purchased Ambit (DiscoverX) KINOMEscan; Cerep
Summary of the method: as §1

MET(Y1235D) = target: T13, MET(Y1235D) (Homo sapiens, UniProt P08581, Y1235D)
T13 construct: purchased Ambit (DiscoverX) KINOMEscan; Cerep
Summary of the method: as §1

MAP3K1 = target: T14, MAP3K1 (Homo sapiens, UniProt Q13233)
T14 construct: purchased Ambit (DiscoverX) KINOMEscan; Cerep
Summary of the method: as §1

PFTK1 = target: T15, PFTK1 (Homo sapiens, UniProt O94921)
T15 construct: purchased Ambit (DiscoverX) KINOMEscan; Cerep
Summary of the method: as §1

JNK3 = target: T16, JNK3 (Homo sapiens, UniProt P53779)
T16 construct: purchased Ambit (DiscoverX) KINOMEscan; Cerep
Summary of the method: as §1

ROCK1 = target: T17, ROCK1 (Homo sapiens, UniProt Q13464)
T17 construct: purchased Ambit (DiscoverX) KINOMEscan; Cerep
Summary of the method: as §1

[2] = target: T18, RPS6KA6(Kin.Dom.1-N-term) (Homo sapiens, UniProt Q9UK32)
T18 construct: RPS6KA6(Kin.Dom.1-N-term); purchased Ambit (DiscoverX) KINOMEscan; Cerep
Summary of the method: as §1

STK35 = target: T19, STK35 (Homo sapiens, UniProt Q8TDR2)
T19 construct: purchased Ambit (DiscoverX) KINOMEscan; Cerep
Summary of the method: as §1

TTK = target: T20, TTK (Homo sapiens, UniProt P33981)
T20 construct: purchased Ambit (DiscoverX) KINOMEscan; Cerep
Summary of the method: as §1

CDKL5 = target: T21, CDKL5 (Homo sapiens, UniProt O76039)
T21 construct: purchased Ambit (DiscoverX) KINOMEscan; Cerep
Summary of the method: as §1

MARK2 = target: T22, MARK2 (Homo sapiens, UniProt Q7KZI7)
T22 construct: purchased Ambit (DiscoverX) KINOMEscan; Cerep
Summary of the method: as §1

MLK2 = target: T23, MLK2 (Homo sapiens, UniProt Q02779)
T23 construct: purchased Ambit (DiscoverX) KINOMEscan; Cerep
T23 sequence (Q02779 whole entry): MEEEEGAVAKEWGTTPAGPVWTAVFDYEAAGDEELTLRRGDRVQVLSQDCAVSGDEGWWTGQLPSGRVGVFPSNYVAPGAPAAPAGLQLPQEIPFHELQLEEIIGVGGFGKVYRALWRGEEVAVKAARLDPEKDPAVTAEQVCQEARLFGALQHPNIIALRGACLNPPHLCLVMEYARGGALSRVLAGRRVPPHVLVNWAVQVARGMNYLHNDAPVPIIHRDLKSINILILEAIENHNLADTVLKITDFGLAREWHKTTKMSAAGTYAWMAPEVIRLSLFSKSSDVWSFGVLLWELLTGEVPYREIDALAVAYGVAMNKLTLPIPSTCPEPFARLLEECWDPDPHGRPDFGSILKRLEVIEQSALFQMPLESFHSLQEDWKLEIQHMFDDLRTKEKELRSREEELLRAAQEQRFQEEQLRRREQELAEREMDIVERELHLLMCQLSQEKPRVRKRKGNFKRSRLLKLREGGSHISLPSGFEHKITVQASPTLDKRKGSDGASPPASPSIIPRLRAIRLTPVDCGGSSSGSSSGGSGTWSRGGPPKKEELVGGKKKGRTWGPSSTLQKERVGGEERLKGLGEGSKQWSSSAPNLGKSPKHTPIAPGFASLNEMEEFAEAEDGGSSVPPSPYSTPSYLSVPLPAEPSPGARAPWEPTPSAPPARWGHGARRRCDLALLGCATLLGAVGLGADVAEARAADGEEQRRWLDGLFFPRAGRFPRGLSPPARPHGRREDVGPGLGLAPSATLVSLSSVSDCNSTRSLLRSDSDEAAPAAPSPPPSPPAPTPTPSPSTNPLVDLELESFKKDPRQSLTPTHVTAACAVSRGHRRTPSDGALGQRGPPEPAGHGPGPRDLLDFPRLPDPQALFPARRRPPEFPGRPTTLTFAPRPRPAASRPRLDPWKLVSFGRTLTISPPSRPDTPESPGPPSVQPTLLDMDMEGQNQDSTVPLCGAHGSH
Summary of the method: as §1

HIPK1 = target: T24, HIPK1 (Homo sapiens, UniProt Q86Z02)
T24 construct: purchased Ambit (DiscoverX) KINOMEscan; Cerep
Summary of the method: as §1

MARK4 = target: T25, MARK4 (Homo sapiens, UniProt Q96L34)
T25 construct: purchased Ambit (DiscoverX) KINOMEscan; Cerep
Summary of the method: as §1

PIK3CA = target: T26, PIK3CA (Homo sapiens, UniProt P42336)
T26 construct: purchased Ambit (DiscoverX) KINOMEscan; Cerep
Summary of the method: as §1

PIK3CA(E545K) = target: T27, PIK3CA(E545K) (Homo sapiens, UniProt P42336, E545K)
T27 construct: purchased Ambit (DiscoverX) KINOMEscan; Cerep
Summary of the method: as §1

[3] = target: T28, TYK2(JHdomain-speudokinase) (Homo sapiens, UniProt P29597)
T28 construct: TYK2(JHdomain-speudokinase); purchased Ambit (DiscoverX) KINOMEscan; Cerep
Summary of the method: as §1

TNK2 = target: T29, TNK2 (Homo sapiens, UniProt Q07912)
T29 construct: purchased Ambit (DiscoverX) KINOMEscan; Cerep
T29 sequence (Q07912 whole entry): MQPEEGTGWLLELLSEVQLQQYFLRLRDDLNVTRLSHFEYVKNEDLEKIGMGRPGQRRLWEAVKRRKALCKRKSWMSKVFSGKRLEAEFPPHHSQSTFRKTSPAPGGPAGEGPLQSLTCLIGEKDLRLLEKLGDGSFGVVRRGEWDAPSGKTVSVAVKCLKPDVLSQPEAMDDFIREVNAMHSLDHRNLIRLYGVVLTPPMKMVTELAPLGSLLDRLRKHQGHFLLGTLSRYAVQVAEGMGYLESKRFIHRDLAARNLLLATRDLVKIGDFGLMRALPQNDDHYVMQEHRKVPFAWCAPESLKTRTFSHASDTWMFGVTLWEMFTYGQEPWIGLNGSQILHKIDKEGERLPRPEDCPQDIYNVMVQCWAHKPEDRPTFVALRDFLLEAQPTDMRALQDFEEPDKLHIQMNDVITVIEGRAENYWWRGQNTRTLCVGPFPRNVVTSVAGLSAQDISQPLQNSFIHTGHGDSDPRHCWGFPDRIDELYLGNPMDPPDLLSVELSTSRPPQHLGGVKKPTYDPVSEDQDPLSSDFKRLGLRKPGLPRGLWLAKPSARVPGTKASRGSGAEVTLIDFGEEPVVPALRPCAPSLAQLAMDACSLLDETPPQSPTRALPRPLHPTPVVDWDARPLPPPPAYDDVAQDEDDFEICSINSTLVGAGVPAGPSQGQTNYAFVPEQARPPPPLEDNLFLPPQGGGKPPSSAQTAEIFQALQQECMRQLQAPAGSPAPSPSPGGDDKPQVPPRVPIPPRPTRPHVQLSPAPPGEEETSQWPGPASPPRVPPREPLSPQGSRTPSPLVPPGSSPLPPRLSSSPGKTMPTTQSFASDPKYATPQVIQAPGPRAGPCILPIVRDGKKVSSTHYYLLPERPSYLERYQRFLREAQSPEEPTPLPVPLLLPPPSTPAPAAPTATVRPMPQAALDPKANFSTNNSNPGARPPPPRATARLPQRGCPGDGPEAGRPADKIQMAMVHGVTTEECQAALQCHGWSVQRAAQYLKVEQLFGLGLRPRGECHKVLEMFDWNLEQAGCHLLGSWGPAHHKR
Summary of the method: as §1

PAK4 = target: T30, PAK4 (Homo sapiens, UniProt O96013)
T30 construct: purchased Ambit (DiscoverX) KINOMEscan; Cerep
T30 sequence (O96013 whole entry): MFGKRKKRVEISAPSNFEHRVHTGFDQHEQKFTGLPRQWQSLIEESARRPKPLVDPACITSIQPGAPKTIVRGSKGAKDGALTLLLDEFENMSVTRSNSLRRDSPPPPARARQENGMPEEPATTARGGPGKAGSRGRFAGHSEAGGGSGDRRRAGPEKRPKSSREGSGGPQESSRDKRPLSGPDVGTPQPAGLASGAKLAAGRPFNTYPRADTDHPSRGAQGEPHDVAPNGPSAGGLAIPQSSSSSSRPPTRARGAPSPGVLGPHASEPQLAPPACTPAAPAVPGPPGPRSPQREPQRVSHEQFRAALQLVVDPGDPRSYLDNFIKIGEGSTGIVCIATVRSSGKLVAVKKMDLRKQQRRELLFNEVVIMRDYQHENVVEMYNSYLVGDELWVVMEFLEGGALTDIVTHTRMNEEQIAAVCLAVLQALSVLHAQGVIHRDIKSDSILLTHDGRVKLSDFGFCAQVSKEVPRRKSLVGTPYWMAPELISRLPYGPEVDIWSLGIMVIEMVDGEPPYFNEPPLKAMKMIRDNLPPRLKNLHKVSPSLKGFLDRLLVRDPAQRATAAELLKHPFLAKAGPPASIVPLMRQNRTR
Summary of the method: as §1

CSNK1g3 = target: T31, CSNK1g3 (Homo sapiens, UniProt Q9Y6M4)
T31 construct: purchased Ambit (DiscoverX) KINOMEscan; Cerep
Summary of the method: as §1

p38-gamma = target: T32, p38-gamma (Homo sapiens, UniProt P53778)
T32 construct: purchased Ambit (DiscoverX) KINOMEscan; Cerep
T32 sequence (P53778 whole entry): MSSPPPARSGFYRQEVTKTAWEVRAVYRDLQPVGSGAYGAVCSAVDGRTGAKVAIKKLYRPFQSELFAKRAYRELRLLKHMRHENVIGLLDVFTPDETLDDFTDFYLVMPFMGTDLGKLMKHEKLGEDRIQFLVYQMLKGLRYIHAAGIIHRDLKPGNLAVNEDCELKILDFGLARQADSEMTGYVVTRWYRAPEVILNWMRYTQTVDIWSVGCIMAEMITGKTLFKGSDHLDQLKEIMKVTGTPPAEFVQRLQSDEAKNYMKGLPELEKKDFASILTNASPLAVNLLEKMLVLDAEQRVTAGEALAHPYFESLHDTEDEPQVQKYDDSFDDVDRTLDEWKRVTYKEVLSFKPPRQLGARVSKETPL
Summary of the method: as §1

CCCCN1CCN(C(=N)c2cccc(NC(=O)Nc3ccc(S(=O)(=O)NCc4ccc(S(N)(=O)=O)cc4)cc3)c2)CC1 [SC81458, 4-(3-(3-((4-butylpiperazin-1-yl)(imino)methyl)phenyl)ureido)-N-(4-sulfamoylbenzyl) benzenesulfonamide]
remaining binding at 10 µM (PAK2): 100%
remaining binding at 10 µM (PKN1): 100%
remaining binding at 10 µM (ERK4): 100%
remaining binding at 10 µM (WEE2): 100%
remaining binding at 10 µM (EGFR(L858R, T790M)): 100%
remaining binding at 10 µM (BMPR2): 100%
remaining binding at 10 µM [1]: 96%
remaining binding at 10 µM (PRKD3): 100%
remaining binding at 10 µM (TESK1): 100%
remaining binding at 10 µM (PRKCH): 92%
remaining binding at 10 µM (DMPK): 76%
remaining binding at 10 µM (PIP5K2b): 84%
remaining binding at 10 µM (MET(Y1235D)): 100%
remaining binding at 10 µM (MAP3K1): 100%
remaining binding at 10 µM (PFTK1): 100%
remaining binding at 10 µM (JNK3): 100%
remaining binding at 10 µM (ROCK1): 100%
remaining binding at 10 µM [2]: 68%
remaining binding at 10 µM (STK35): 87%
remaining binding at 10 µM (TTK): 91%
remaining binding at 10 µM (CDKL5): 100%
remaining binding at 10 µM (MARK2): 100%
remaining binding at 10 µM (MLK2): 100%
remaining binding at 10 µM (HIPK1): 100%
remaining binding at 10 µM (MARK4): 100%
remaining binding at 10 µM (PIK3CA): 83%
remaining binding at 10 µM (PIK3CA(E545K)): 100%
remaining binding at 10 µM [3]: 93%
remaining binding at 10 µM (TNK2): 94%
remaining binding at 10 µM (PAK4): 100%
remaining binding at 10 µM (CSNK1g3): 100%
remaining binding at 10 µM (p38-gamma): 85%
